Activity calls are given as the source filed them. The rule behind the calls is not given here.
Assays:
[1] = Anti-inflammatory activity against HBE cells assessed as inhibition of LPS-induced IL-6 level at 5 uM pretreated for 30 mins followed by LPS treatment for 24 hrs by ELISA relative to control; format: functional; settings: Homo sapiens, time 24.5 hrs
[2] = test system: RAW264.7; assay: Anti-inflammatory activity against mouse RAW264.7 cells assessed as inhibition of LPS-induced IL-6 level
[3] = test system: RAW264.7; assay: Anti-inflammatory activity against mouse RAW264.7 cells assessed as inhibition of LPS-induced IL-1beta level
[4] = molecular target: T1, Procathepsin L (Homo sapiens, UniProt P07711); assay: Inhibition of CTSL maturation in HBE cells pretreated for 30 mis followed by LPS treatment for 16 hrs by Western blot analysis; format: cell-based; settings: dose 0.5-5 µM, time 16.5 hrs
T1 sequence (P07711 114-333 limits assumed): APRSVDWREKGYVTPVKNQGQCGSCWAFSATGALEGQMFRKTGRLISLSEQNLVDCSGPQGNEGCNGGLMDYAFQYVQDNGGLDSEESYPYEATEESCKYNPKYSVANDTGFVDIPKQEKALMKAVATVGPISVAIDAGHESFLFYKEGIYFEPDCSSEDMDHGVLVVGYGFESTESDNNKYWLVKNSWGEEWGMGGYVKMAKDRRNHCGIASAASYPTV

[5] = molecular target: T1, Procathepsin L; assay: Induction of thermal stabilization of pro-CTSL in protein lysate extracted from human THP-1 cells pretreated for 6 hrs followed by heat exposure at 37 to 62 degreeC for 3 mins by CETSA; format: subcellular; settings: time 363.0 min
[6] = test system: HBE; assay: Anti-inflammatory activity against HBE cells assessed as inhibition of LPS-induced p-Ikappa-Balpha level pretreated for 30 mis followed by LPS treatment for 16 hrs by Western blot analysis; format: functional, cell-based; settings: Homo sapiens, dose 0.5-5 µM, time 16.5 hrs
[7] = test system: RAW264.7; assay: Anti-inflammatory activity against mouse RAW264.7 cells assessed as inhibition of LPS-induced TNF-alpha mRNA level at 50 to 500 nM by RT-qPCR analysis; format: functional, cell-based; settings: dose 50-500 nM
[8] = test system: RAW264.7; assay: Anti-inflammatory activity against mouse RAW264.7 cells assessed as inhibition of LPS-induced iNOS level by Western blot analysis; format: functional, cell-based; settings: dose 50-500 nM
[9] = molecular target: T2, Serine/threonine-protein kinase Chk1 (Homo sapiens) (UniProt O14757); assay: Inhibition of CHK1 (unknown origin) at 1 uM by kinase profiling analysis relative to control
T2 sequence (whole entry): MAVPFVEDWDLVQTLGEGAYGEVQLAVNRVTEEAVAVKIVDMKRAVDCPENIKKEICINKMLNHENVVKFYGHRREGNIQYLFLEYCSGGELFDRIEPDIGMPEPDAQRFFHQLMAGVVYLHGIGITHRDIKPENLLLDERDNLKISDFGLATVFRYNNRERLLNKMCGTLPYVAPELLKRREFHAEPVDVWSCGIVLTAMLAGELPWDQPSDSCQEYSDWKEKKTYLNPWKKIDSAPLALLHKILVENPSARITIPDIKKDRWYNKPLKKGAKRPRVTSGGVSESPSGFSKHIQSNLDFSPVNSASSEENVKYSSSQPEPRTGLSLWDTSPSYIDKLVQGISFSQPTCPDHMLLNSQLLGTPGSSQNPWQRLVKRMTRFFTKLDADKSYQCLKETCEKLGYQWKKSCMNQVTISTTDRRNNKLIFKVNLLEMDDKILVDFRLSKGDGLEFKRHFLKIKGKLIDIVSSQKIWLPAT

[10] = molecular target: T3, Tyrosine-protein kinase JAK3 (Homo sapiens, UniProt P52333); assay: Inhibition of JAK3 (unknown origin) using TK-biotin as substrate incubated for 30 mins in presence of ATP by HTRF assay
T3 sequence (P52333 whole entry): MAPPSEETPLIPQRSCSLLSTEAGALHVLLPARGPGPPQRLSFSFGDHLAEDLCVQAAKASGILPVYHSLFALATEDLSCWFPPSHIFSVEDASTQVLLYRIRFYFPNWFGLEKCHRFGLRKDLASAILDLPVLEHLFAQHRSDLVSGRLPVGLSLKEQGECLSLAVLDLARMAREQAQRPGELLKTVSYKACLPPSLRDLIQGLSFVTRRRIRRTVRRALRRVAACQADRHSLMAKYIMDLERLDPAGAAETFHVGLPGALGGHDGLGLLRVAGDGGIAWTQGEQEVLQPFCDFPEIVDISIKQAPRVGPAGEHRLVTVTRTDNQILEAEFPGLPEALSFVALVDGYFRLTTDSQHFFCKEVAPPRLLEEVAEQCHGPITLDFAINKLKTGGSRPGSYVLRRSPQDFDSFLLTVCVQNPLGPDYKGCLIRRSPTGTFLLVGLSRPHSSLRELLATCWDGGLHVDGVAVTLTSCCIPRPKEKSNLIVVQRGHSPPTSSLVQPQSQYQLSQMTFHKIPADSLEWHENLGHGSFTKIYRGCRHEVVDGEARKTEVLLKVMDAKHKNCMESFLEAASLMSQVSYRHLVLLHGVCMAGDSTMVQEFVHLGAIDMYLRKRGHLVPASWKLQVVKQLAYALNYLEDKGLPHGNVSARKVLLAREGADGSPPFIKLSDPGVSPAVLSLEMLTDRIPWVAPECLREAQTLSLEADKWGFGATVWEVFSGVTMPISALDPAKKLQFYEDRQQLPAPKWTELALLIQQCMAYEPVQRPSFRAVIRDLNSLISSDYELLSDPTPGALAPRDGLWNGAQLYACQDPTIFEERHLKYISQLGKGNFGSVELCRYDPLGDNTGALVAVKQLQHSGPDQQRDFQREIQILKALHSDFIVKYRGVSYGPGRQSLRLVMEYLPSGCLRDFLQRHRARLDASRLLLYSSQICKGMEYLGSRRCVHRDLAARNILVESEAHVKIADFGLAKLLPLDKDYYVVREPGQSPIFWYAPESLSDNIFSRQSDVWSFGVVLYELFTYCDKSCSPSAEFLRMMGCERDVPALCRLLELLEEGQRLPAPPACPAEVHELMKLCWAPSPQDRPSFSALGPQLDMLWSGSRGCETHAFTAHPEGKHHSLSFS

[11] = test system: Mus musculus; assay: (§1) Anti-inflammatory activity in C57BL/6 mouse model of LPS-induced acute lung injury assessed as decrease in pulmonary edema in lung at 10 mg/kg, ip treated for 3 days followed by LPS treatment after 1 hr post-compound administration on fourth day measured after 18 hrs post-LPS treatment by H and E staining based analysis; format: functional, organism-based; settings: time 91.0 hrs
[12] = test system: Mus musculus; assay: as §1, with “disruption of endothelial cell structures” for “pulmonary edema”; format: functional, organism-based; settings: time 91.0 hrs
[13] = test system: Mus musculus; assay: Anti-inflammatory activity in C57BL/6 mouse model of LPS-induced acute lung injury assessed as decrease in total protein concentration in BALF at 10 mg/kg, ip treated for 3 days followed by LPS treatment after 1 hr post-compound administration on fourth day measured after 18 hrs post-LPS treatment; format: functional, organism-based; settings: time 91.0 hrs
[14] = test system: Mus musculus; assay: (§2) Anti-inflammatory activity in C57BL/6 mouse model of LPS-induced acute lung injury assessed as decrease in TNF-alpha mRNA level in lung at 10 mg/kg, ip treated for 3 days followed by LPS treatment after 1 hr post-compound administration on fourth day measured after 18 hrs post-LPS treatment by RT-qPCR analysis; format: functional, organism-based; settings: time 91.0 hrs
[15] = test system: Mus musculus; assay: as §2, with “IL-6” for “TNF-alpha”; format: functional, organism-based; settings: time 91.0 hrs
[16] = Half life in Sprague-Dawley rat at 3.5 mg/kg, iv measured for 24 hrs by LC-MS/MS analysis; format: ADME, organism-based; settings: in vivo
[17] = Cmax in Sprague-Dawley rat at 3.5 mg/kg, iv measured for 24 hrs by LC-MS/MS analysis; format: ADME, organism-based; settings: in vivo
[18] = Cmax in Sprague-Dawley rat at 3.5 mg/kg, po measured for 24 hrs by LC-MS/MS analysis; format: ADME, organism-based; settings: in vivo

With `Cl.Cn1cc(-c2ccnc(Nc3cccc(N)c3)n2)c2ccccc21` as the compound, how does the inhibition at 5 µM [1] read?
The inhibition at 5 µM was 83%.

What about the IC50 [2] of the same compound?
Its IC50 is 50.1 nM.

What about the IC50 [3] of the same compound?
Its IC50 is 91.2 nM.

What about the inhibition [4] of the same compound?
Its inhibition is “Dose-dependent-effect”.

And the Activity [5]?
Its Activity is “Active”.

What about the inhibition [6] of the same compound?
Its inhibition is “Dose-dependent-effect”.

What about the inhibition [7] of the same compound?
Its inhibition is “Active”.

What about the inhibition [8] of the same compound?
The inhibition was “Dose-dependent-effect”.

And the inhibition [9]?
The inhibition was 81.7%.

What about the IC50 [10] of the same compound?
Its IC50 is 27.3 nM.

And the Activity [11]?
Its Activity is “Active”.

What about the Activity [12] of the same compound?
Its Activity is “Active”.

What about the Activity [13] of the same compound?
The Activity was “Active”.

And the Activity [14]?
Its Activity is “Active”.

And the Activity [15]?
Its Activity is “Active”.

And the half-life [16]?
The half-life was 497 min.

What about the Cmax [17] of the same compound?
Its Cmax is 655 ng/mL.

And the Cmax [18]?
Its Cmax is 65.2 ng/mL.
